Five compounds from ChEMBL document CHEMBL5465560, “Selectivity Literature for EUbOPEN Chemogenomic Library” (2024) can be followed below.

Experiment [1] deals with T1, Interleukin-1 receptor-associated kinase 4 (Homo sapiens) (UniProt Q9NWZ3).
T1 sequence (whole entry): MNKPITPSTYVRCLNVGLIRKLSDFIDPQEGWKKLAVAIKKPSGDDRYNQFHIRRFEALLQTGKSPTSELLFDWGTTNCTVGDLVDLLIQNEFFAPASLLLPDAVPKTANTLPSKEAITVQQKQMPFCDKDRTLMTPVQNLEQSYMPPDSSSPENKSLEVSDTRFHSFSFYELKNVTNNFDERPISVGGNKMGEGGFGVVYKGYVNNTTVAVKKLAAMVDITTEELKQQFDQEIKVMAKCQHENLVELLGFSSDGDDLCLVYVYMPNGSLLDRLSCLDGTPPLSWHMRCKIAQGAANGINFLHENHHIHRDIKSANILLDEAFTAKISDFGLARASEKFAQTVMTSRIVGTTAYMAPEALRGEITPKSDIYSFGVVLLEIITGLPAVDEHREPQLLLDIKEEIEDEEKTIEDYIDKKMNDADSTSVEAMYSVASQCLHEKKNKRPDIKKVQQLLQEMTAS
The experiment in a line: Selectivity interaction (KinomeScan (DiscoverX)) EUB0000595a IRAK4. The note with it: at 10 µM.

For experiment [2], the target named is T2, Megakaryocyte-associated tyrosine-protein kinase (Homo sapiens) (UniProt P42679).
T2 sequence (whole entry): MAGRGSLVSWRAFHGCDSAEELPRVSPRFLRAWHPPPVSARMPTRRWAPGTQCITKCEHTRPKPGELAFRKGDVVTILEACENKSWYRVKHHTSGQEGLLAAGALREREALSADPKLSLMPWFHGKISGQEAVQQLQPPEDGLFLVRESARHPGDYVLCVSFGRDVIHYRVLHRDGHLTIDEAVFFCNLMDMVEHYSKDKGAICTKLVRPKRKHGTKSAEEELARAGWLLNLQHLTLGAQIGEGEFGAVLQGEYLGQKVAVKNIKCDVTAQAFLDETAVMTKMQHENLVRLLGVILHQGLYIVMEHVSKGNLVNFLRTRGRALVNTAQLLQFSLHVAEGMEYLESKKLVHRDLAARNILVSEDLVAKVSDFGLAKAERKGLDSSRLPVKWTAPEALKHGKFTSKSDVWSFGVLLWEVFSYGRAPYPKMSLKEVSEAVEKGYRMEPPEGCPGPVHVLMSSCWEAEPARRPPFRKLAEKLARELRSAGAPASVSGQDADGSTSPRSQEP
The experiment in a line: Selectivity interaction (Kinase panel (Invitrogen)) EUB0000639a MATK. Conditions: at 200 nM.

Experiment [3] has as its target T3, Serine/threonine-protein kinase Nek1 (Homo sapiens) (UniProt Q96PY6).
T3 sequence (whole entry): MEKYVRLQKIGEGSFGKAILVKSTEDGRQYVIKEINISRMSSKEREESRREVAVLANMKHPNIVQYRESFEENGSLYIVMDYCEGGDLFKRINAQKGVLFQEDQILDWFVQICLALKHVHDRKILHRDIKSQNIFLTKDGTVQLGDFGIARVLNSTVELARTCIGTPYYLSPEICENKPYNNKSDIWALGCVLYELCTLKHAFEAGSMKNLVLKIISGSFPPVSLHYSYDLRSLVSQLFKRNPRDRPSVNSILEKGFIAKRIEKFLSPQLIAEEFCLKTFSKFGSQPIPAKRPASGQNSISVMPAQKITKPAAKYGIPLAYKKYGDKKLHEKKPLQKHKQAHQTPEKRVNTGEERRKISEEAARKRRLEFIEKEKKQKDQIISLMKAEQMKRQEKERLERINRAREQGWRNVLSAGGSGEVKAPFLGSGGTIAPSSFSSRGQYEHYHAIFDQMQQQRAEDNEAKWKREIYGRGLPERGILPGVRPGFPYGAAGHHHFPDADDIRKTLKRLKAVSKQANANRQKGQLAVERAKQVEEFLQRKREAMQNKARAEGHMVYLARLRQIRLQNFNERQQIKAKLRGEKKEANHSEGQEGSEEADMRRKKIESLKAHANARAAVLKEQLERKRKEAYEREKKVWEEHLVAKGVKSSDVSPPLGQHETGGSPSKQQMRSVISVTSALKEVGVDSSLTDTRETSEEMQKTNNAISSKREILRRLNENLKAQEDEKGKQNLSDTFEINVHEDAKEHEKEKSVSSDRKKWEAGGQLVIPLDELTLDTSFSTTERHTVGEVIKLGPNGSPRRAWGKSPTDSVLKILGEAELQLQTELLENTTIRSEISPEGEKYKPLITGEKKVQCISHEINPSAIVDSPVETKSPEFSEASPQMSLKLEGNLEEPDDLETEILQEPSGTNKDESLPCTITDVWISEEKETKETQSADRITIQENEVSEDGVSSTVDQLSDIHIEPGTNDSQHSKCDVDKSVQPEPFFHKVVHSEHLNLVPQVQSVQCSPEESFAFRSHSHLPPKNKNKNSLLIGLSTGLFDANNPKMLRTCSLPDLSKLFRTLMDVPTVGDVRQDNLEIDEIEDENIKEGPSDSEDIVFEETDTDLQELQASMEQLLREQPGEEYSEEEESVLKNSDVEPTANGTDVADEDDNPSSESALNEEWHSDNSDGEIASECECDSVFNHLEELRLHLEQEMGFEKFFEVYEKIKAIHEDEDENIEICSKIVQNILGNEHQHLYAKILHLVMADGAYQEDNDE
The experiment in a line: Selectivity interaction (KinomeScan (DiscoverX)) EUB0001049a NEK1. Conditions: at 1 µM.

In experiment [4] the target is Protein kinase C theta type (Homo sapiens, UniProt Q04759). The experiment in a line: Selectivity interaction (Upstate Kinase Profiler service (Millipore)) EUB0000056c PRKCQ. The note with it: at 1 µM.
Chain of Protein kinase C theta type (Q04759 whole entry, looked up): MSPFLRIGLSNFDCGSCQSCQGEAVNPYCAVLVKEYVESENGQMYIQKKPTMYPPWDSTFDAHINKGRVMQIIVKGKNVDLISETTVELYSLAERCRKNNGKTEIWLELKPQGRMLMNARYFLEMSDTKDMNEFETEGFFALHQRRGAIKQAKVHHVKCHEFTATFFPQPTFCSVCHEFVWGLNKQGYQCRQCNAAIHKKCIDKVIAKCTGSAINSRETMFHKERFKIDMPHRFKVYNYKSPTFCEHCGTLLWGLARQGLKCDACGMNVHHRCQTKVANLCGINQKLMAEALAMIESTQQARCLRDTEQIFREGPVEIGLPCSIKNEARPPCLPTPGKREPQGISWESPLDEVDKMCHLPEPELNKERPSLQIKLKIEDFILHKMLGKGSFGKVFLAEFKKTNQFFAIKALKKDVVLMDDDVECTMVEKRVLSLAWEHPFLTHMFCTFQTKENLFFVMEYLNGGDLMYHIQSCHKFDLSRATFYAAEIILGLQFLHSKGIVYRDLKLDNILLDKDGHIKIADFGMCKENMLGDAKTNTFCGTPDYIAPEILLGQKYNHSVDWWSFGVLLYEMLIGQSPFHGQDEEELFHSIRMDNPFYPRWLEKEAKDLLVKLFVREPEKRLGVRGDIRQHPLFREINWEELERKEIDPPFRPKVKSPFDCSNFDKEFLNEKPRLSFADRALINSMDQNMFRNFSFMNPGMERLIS
In experiment [5] the target is T4, Myotonin-protein kinase (Homo sapiens) (UniProt Q09013).
T4 sequence (whole entry): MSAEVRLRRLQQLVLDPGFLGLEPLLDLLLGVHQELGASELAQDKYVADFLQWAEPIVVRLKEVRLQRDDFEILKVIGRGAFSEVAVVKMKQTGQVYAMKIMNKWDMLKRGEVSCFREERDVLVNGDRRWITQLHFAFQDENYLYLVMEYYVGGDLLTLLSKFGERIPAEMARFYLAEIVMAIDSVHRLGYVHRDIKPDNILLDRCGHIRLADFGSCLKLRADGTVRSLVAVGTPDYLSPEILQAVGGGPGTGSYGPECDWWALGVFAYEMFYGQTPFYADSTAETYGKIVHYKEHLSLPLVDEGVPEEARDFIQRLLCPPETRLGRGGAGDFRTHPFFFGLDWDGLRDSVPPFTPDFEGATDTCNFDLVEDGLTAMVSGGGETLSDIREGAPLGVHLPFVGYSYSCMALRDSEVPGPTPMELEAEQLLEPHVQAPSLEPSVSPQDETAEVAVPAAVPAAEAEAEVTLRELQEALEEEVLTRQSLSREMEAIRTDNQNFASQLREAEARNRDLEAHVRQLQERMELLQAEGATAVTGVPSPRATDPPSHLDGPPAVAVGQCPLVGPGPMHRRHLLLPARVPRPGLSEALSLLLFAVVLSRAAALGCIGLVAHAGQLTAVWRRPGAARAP
The experiment in a line: Selectivity interaction (KinomeScan (DiscoverX)) EUB0000092b DMPK. The note with it: at 10 µM.

`COCC(=O)NC/C=C/c1ccc2ncnc(Nc3ccc(Oc4ccc(C)nc4)c(C)c3)c2c1` [CP-724714] displayed a % of control in experiment [1] of 100%.

In turn, `CC[C@@H]1[C@H](F)C(=O)N[C@@H]1COc1nccc2cc(C(N)=O)c(OC)cc12` [ZIMLOVISERTIB] yielded a % of inhibition in experiment [2] of 1.51%.

Regarding `COc1cc(Nc2nc(C)cc(-c3cnn4nc(OC)ccc34)n2)cc(C(F)(F)F)c1`, the % of control in experiment [3] is 100%.

`Cc1ccc(-c2ccc3c(ccc4sc5c(c43)NC[C@@H](C)NC5=O)n2)cn1`: the % of inhibition in experiment [4] was 27%.

`CCC(=O)N1CCN(c2ccc(-n3c(=O)ccc4cnc5ccc(-c6cnc7ccccc7c6)cc5c43)cc2C(F)(F)F)CC1` returned a % of control in experiment [5] of 77%.
